Source: ChEMBL document CHEMBL1140018, “Synthesis and structure-activity relationship of imidazo(1,2-a)thieno(3,2-e)pyrazines as IKK-beta inhibitors” (Bioorg Med Chem Lett, 2007)

Key:
[1] = target: T1, Inhibitor of nuclear factor kappa-B kinase subunit beta (Homo sapiens, UniProt O14920)
T1 sequence (O14920 whole entry): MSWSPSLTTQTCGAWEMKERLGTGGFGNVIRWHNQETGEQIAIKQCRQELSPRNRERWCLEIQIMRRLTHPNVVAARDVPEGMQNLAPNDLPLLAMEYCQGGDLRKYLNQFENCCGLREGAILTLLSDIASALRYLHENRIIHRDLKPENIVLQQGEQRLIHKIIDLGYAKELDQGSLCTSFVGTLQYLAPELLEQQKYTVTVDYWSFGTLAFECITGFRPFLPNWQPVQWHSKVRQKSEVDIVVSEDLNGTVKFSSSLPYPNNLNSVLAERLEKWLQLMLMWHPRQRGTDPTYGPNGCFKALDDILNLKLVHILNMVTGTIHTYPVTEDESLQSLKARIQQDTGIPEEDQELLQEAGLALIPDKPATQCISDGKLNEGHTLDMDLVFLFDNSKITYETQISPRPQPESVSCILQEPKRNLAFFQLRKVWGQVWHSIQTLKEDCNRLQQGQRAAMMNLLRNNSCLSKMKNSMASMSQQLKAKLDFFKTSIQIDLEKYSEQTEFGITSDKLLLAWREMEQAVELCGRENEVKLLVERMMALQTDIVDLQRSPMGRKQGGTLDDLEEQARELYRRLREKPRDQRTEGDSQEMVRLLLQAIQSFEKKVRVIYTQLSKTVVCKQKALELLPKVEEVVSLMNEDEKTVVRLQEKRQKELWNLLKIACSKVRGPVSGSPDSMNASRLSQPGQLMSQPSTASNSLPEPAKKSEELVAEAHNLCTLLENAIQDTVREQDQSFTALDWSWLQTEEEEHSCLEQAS

Jurkat = test: Inhibition of TNF-alpha-induced response in Jurkat cells; details: Homo sapiens
[2] = Cytotoxicity against Jurkat cells by Alamar blue assay; details: human
[3] = target: T2, Inhibitor of nuclear factor kappa-B kinase subunit alpha (Homo sapiens, UniProt O15111)
T2 sequence (O15111 whole entry): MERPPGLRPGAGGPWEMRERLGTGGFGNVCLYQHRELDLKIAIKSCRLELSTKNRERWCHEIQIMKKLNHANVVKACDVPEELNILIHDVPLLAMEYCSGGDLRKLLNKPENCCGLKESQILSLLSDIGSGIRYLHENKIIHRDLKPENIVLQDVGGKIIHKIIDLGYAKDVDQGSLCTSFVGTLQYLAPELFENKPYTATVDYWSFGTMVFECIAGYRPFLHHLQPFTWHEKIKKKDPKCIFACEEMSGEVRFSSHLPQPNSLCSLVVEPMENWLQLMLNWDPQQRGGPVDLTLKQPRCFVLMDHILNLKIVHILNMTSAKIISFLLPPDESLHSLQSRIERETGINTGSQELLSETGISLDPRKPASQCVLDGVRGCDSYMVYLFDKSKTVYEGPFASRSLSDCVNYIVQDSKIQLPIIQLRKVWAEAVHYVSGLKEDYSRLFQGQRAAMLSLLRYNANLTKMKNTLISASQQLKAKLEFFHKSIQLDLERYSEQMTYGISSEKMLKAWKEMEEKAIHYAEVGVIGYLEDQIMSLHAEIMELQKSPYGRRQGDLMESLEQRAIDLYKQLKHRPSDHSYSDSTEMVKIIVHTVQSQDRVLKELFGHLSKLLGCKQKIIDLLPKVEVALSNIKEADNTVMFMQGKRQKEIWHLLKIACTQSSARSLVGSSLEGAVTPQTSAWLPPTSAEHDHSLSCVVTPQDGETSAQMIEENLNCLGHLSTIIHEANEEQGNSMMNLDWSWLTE

IC50 [1] | EC50 (Jurkat) | IC50 [3] | Compound | CC50 ([2]; Jurkat cells) | CC50 ([2]; jurkat)
290 nM | 35600 nM | > 30000 nM | CNc1nc2cc(-c3cccc(C(N)=O)c3)sc2n2c(C)cnc12 | > 100000 nM | –
< 9 nM | 4960 nM | 1340 nM | CNc1nc2cc(-c3cccc(CCC(=O)O)c3)sc2n2c(C)cnc12 | > 100000 nM | –
190 nM | 65700 nM | 14400 nM | CNc1nc2cc(-c3cccc(C(=O)O)c3)sc2n2c(C)cnc12 | > 100000 nM | –
13 nM | > 100000 nM | 1260 nM | CNc1nc2cc(-c3cccc(CC(N)C(=O)O)c3)sc2n2c(C)cnc12 (stereo unspecified) | > 100000 nM | –
38 nM | 2330 nM | 770 nM | CNc1nc2cc(-c3cccc(CNC(C)=O)c3)sc2n2c(C)cnc12 | > 100000 nM | –
7 nM | 920 nM | 440 nM | CNc1nc2cc(-c3cccc(CCNS(N)(=O)=O)c3)sc2n2c(C)cnc12 | > 100000 nM | –
490 nM | > 30000 nM | 7830 nM | CNc1nc2cc(C)sc2n2c(C)cnc12 | > 100000 nM | –
21 nM | 1970 nM | 820 nM | CNc1nc2cc(-c3cccc(CCNC(C)=O)c3)sc2n2c(C)cnc12 | > 100000 nM | –
14 nM | 450 nM | 260 nM | CNc1nc2cc(-c3cccc(C[C@H](N)C(N)=O)c3)sc2n2c(C)cnc12 | > 100000 nM | –
27 nM | 690 nM | 190 nM | CNc1nc2cc(-c3cccc(C[C@@H](N)C(N)=O)c3)sc2n2c(C)cnc12 | 90000 nM | –
260 nM | 5730 nM | 1990 nM | CCNc1nc2cc(-c3ccccc3)sc2n2c(C)cnc12 | > 100000 nM | –
23 nM | 2610 nM | 510 nM | CNc1nc2cc(-c3cccc(CNCC(N)=O)c3)sc2n2c(C)cnc12 | > 100000 nM | –
45 nM | 6730 nM | 650 nM | CNc1nc2cc(-c3cccc(CCN)c3)sc2n2c(C)cnc12 | 21000 nM | –
51 nM | 1900 nM | 1080 nM | CNC(=O)CNCCc1cccc(-c2cc3nc(NC)c4ncc(C)n4c3s2)c1 | 50000 nM | –
520 nM | > 3000 nM | 4120 nM | CNc1nc2ccsc2n2c(C)cnc12 | > 100000 nM | –
450 nM | > 100000 nM | 3860 nM | Cc1cnc2c(NCCN)nc3cc(C4=NCN=C4)sc3n12 | 38000 nM | –

The remaining lines, values behind:

Compound | IC50 [1] | EC50 (Jurkat) | IC50 [3] | CC50 ([2]; Jurkat cells) | CC50 ([2]; jurkat)
Cc1cnc2c(NCCN)nc3cc(-c4ccc[nH]4)sc3n12 | 250 nM | 7960 nM | 1260 nM | 7900 nM | –
Cc1cnc2c(NCCN)nc3cc(-c4nccs4)sc3n12 | 230 nM | 18600 nM | 1110 nM | 5900 nM | –
Cc1cnc2c(NCCN)nc3cc(-c4cccnc4)sc3n12 | 140 nM | 29500 nM | 2570 nM | 49000 nM | –
Cc1cnc2c(NCCN)nc3cc(-c4cccc(CCO)c4)sc3n12 | 21 nM | 950 nM | 910 nM | 13000 nM | –
Cc1cnc2c(NCCO)nc3cc(-c4ccccc4)sc3n12 | 85 nM | 7170 nM | 3480 nM | > 100000 nM | –
Cc1cnc2c(NCC(N)=O)nc3cc(-c4ccccc4)sc3n12 | 360 nM | > 100000 nM | > 25000 nM | > 100000 nM | –
COc1ccc(-c2cc3nc(NCCN)c4ncc(C)n4c3s2)cc1 | 95 nM | > 30000 nM | 2800 nM | > 100000 nM | –
Cc1cnc2c(NCCN)nc3cc(-c4ccccc4CO)sc3n12 | 130 nM | 15600 nM | 4400 nM | > 100000 nM | –
Cc1cnc2c(NCCNC=O)nc3cc(-c4ccccc4)sc3n12 | 230 nM | 3160 nM | 7990 nM | > 100000 nM | –
Cc1cnc2c(NCCN)nc3cc(-c4ccoc4)sc3n12 | 29 nM | 4530 nM | 940 nM | > 100000 nM | –
CC(=O)NCCNc1nc2cc(-c3ccccc3)sc2n2c(C)cnc12 | 290 nM | 10200 nM | 7030 nM | > 100000 nM | –
COc1cccc(-c2cc3nc(NCCN)c4ncc(C)n4c3s2)c1 | 44 nM | 29200 nM | 690 nM | 3500 nM | –
CNCCNc1nc2cc3ccccc3cc2n2c(C)cnc12 | – | 850 nM | 420 nM | – | –
Cc1cnc2c(NCCN(C)C)nc3cc(-c4ccccc4)sc3n12 | 95 nM | > 30000 nM | 1170 nM | > 100000 nM | –
COc1nc2cc(-c3ccccc3)sc2n2c(C)cnc12 | > 1000 nM | > 100000 nM | > 100000 nM | > 100000 nM | –
Cc1cnc2c(NCCN)nc3cc(-c4cn[nH]c4)sc3n12 | 10 nM | 8020 nM | 1450 nM | 46000 nM | –
Cc1cnc2c(NCCN)nc3cc(-c4ccncc4)sc3n12 | 270 nM | 59600 nM | 2930 nM | > 100000 nM | –
Cc1cnc2c(NCCN)nc3ccsc3n12 | 170 nM | > 100000 nM | 12100 nM | > 100000 nM | –
Cc1cnc2c(NCCN)nc3cc(-c4cccc(CO)c4)sc3n12 | 8 nM | 2400 nM | 450 nM | – | 7000 nM
Cc1cnc2c(N)nc3cc(-c4ccccc4)sc3n12 | 370 nM | 17000 nM | 6500 nM | > 100000 nM | –
Cc1cnc2c(NCCN)nc3cc(-c4ccccn4)sc3n12 | 190 nM | > 100000 nM | 1240 nM | 13000 nM | –
